Results on 2 compounds are retold here after patent US9572850B2, “Use of cajeput and Pimenta racemosa extract for treating parasitic infestation of fish” (Mars, Incorporated, priority 2009, dated 2017).

Data set [1] deals with G. turnbulli. To be noted: 0.15 mg/l alone (daily water changes). The procedure:
(§1) Efficacy of treatments in all trials was assessed using the following equation: Et=(L0−Lt)/L0 for Lt<L0, and ΔEt=0 for Lt>L0. Where • L0=parasite load at start of treatment • Lt=parasite load at end of treatment and • Et=efficacy of treatment at time t.

Data set [2] relates to Gyrodactylus turnbulli infections on guppies. Nature of the data set: Allyl disulphide carefully applied: high dose 10 min exposure, followed by low dose 1 h exposure. To be noted: high dose 10 min exposure, followed by low dose 1 h exposure. It is filed as in vivo.
Data set [3] concerns single guppies each infected with 2-200 G. turnbulli. Nature of the data set: Host mortality in Trial 2.
Procedure: They were fed on a mixture of live food (Daphnia and Artemia spp.) and Aquarian fish flakes at least twice daily and were maintained at 25±1° C. with a 12 h dark:12 h light cycle.
On D1 (day 1) and D8 (day 8) the number of parasites and their location on the host were recorded by screening fish anaesthetised with 0.02% MS222 using a stereo-microscope and cold light illumination.
In a second trial, single guppies (n=115) each infected with 2-200 G. turnbulli were maintained as in Trial 1 and received treatments of either allyl disulphide, Pimafix®, Melafix® or a Pimafix®/Melafix® combination.
In data set [4] the test system is G. turnbulli. In words: Trial 2: single parasite, single fish, low dose, 7 day treatment; efficacy of treatments. Format: in vivo. The procedure: as §1
All data were analysed in Minitab vs. 15.

Take `c1ccc([C@H]2CN3CCSC3=N2)cc1` [Levamisole, levamisole]: the “efficacy at removing parasites (in words)” value in data set [1] was “not effective at removing parasites”.

On to `C=CCSSCC=C` [Allyl disulphide, allyl disulphide], for which the “efficacy (in words)” value in data set [2] is “effective only when carefully applied”; in data set [4] (Trial 2, single parasite, single fish, low dose, 7 day treatment), “not effective”; in data set [4] (applied at a low dose, comparable to applications used in the aquarium trade), “not effective”. Moreover, the “increase of host mortality compared to the control” value in data set [3] came out at 15%. Moreover, the “Host mortalities (%) Trial 2” value in data set [3] (single guppies, 7 day treatment) turned out to be 50%.
